Results reported in patent US6610686B1, “Use of pirenoxine for the protection of corneal tissues in photokeractomy” (Ausimont S.p.A., priority 1999, dated 2003).

Assays:
[1] = system: epithelium and endothelium homogenates of rabbit corneas; test: In vitro Fe(III)-ascorbic acid induced lipid peroxidation in epithelium and endothelium homogenates of rabbit corneas; format: biochemical; conditions: homogenate + 10 μM FeCl3 and ascorbic acid, 27° C., 30 minutes, 10^−5 M pirenoxine; mean ± SEM
Description: The experimental procedure for the evaluation of the inhibiting action against the lipid-peroxidation exerted by pirenoxine in cornea epithelial and endothelial cells made use of Fe(III)-ascorbic acid system to induce the peroxidative phenomenon. The oxidative attack on membrane lipids was confirmed by the spectrophotometric determinations of both the conjugated dienes and fluorescent lipid-soluble substances which, as known, are generated by the oxidative degradation of lipid molecules.
Used experimental procedure included the following steps: a) abstraction of the cornea from the eye of male pigmented rabbits suitably selected and prepared for the study; b) incubation of the latter in 100 μM phosphate buffer, pH 7,5, in the presence of 1000 U collagenase and 5 μM CaCl2 for 20 hours at 37° C.; c) centrifugation at 35000 rpm at 0° C. for 10 minutes and washings of the sediment with phosphate buffer; d) homogenization of the cellular sediment in 1 ml of buffer, pH 7,4 (10% w/v); e) incubation of a suitable homogenate aliquot with 10 μM FeCl3 and ascorbic acid in phosphate buffer, pH 7,4, at 27° C. for 30 minutes in presence and in absence of 10^−5 M pirenoxine; f) extraction of the lipid-soluble substances using chloroform/methanol mixture (2:1 v/v). […]

[2] = system: rabbit corneas incubated with f-MLP-stimulated autologous macrophages; test: In vitro protection of whole corneas against ROS from f-MLP-stimulated autologous rabbit macrophages; format: cell-based; conditions: 10^−5 M pirenoxine, 10^−7 M f-MLP stimulated macrophages, two hours at 37° C.
Procedure: In order to evaluate the inhibition exerted by pirenoxine against the oxidizing activity of macrophage produced ROS at level of the cornea, the following procedure was carried out: (a) broncho-alveolar washing of the rabbit to obtain the macrophages; (b) abstraction of the cornea from the rabbit eye; (c) incubation of the corneas with 10^−7 M f-MLP stimulated or not stimulated macrophages (800000 cells/well) for two hours at 37° C., 5 % CO2 in presence and in absence of 10^−5 M pirenoxine; (d) separation and homogenization of the epithelial and endothelial corneal cells and subsequent determination of fluorescence as described in b, c, d and f steps of the above methodology.

[3] = system: epithelial corneal cells (SIRC); test: In vitro protection of UV312 irradiated epithelial corneal cells (SIRC); format: cell-based; conditions: for Lipid-soluble fluorescent substances, U/mg protein / Lipid-soluble fluorescent substances, U/well: UV312 80 mJ/cm^2, 10^−5 pirenoxine, 17 hours at 37° C.
Procedure: The protective effect of pirenoxine on epithelial comeal cells (SIRC) irradiated for 36″ using UV312 light (80 mJ/cm^2), according to the following procedure: (a) the comeal cells were plated in 35 mm diameter wells; (b) at 80% confluency the cells were contacted with a medium at low (0,2%) serum content to inhibit the proliferation thereof during the experiment (c) the cells were irradiated with UV light in presence and in absence of 10^−5 pirenoxine, incubated at 37° C. for 17 hours and homogenized in 10 mM f) phosphate buffer, pH 7,4; (d) the lipid-soluble fluorescent substances and the proteins contained in suitable homogenate aliquots were determined.

rabbit corneas = test: In vivo effect on rabbit corneas after intrastromal injection of UV irradiated ferritin; conditions: two drops of 0,005% pirenoxine every hour 8 times a day over 4 days, corneas at 5th day
Procedure: (a) rabbits were anaesthetized by low pentobarbital doses (20 mg/kg); (b) 25 μl of 50 μM ferritin in 0,15 M NaCl were injected in the stroma of the cornea by a 0,33×13 mm/29G insulin syringe whereas the controls were treated with 25 μl physiological solution; (c) in the eyes every hour two drops (1 drop=30 μl) of 0,005% pirenoxine in 0,145 M NaCl 8 times a day over 4 days were instilled, whereas the controls were treated only with the solvent, in the same amount and frequency; (d) at the 5th day the animals were sacrificed using a pentobarbital overdose (100 mg/kg); (e) the corneas were abstracted and the tissue cells separated and collected according to the procedure described in the ex vivo experiment; (f) the conjugated dienes and fluorescent soluble lipid contained in suitable homogenate aliquots were determined.
In vivo conjugated diene and lipid soluble fluorescence substance formation in corneas 5 days after the rabbit eyes were submitted to intrastromal injection of UV-irradiated ferritin and topical instillation of pirenoxine solution (2 drops every hour for 8 hr over 4 days)

[4] = reconstituted aqueous solution, ambient temperature; cited from earlier work

With `O=C(O)c1cc(O)c2c3nc4ccccc4oc-3cc(=O)c2n1` [pirenoxine, 1-hydroxy-5-oxo-5H-pyrido-[3,2a]-phenoxazin-3-carboxylic acid] the Conjugated dienes [1] was 2.77 ± 0.07 nmol/hemicornea, the “Fluorescence (fluorescent lipid-soluble substances)” value [1] was 5.22 ± 0.13 U/hemicornea and the “Induced fluorescence of lipid soluble substances (FIG. 1)” value [2] was “remarkably lower than the controls and are comparable to those of normal corneas (basal values)”. For the same compound, the “Lipid-soluble fluorescent substances, U/mg protein” value ([3]; Cells 14/01) was 2.76 U/mg protein, the “Lipid-soluble fluorescent substances, U/well” value ([3]; Cells 14/01) was 0.92 U/well and the “Lipid-soluble fluorescent substances, U/mg protein” value ([3]; Cells 17/12) was 9.08 U/mg protein. The “Lipid-soluble fluorescent substances, U/well” value ([3]; Cells 17/12) was 3.66 U/well, the “Lipid-soluble fluorescent substances, U/mg protein” value ([3]; Cells 20/12) was 7.35 U/mg protein and the “Lipid-soluble fluorescent substances, U/well” value ([3]; Cells 20/12) was 1.8 U/well. The “Lipid-soluble fluorescent substances relative to irradiated cells not protected by pirenoxine” value ([3]; UV312 irradiation, 10^−5 pirenoxine) was “notably lower (about two and half times)”, the Conjugated diene (rabbit corneas) was 1.7 Nmoles/hemicornea and the Fluorescence (rabbit corneas) was 4.4 Unit/hemicornea. The “Storage time of reconstituted solution without degradation” value [4] was “about two weeks without degradation”.
